Laboratory results published in patent publication US20240269139A1, “COMPOUNDS FOR TARGETED PROTEIN DEGRADATION OF KINASES” (DANA-FARBER CANCER INSTITUTE, INC., priority 2020, published 2024).
Read-outs that look alike come from different tables or passages of the source.

Columns and labels:
Assay type in all cases: cell-based
[1] = molecular target: protein kinases (human kinome) (Homo sapiens, UniProt Q8N5S9); settings: experiment wp117
[2] = molecular target: protein kinases (human kinome) (Homo sapiens, UniProt O00764); settings: protein PDXK (O00764-1); experiment wp117; down
[3] = molecular target: T1, protein kinases (human kinome) (Homo sapiens, UniProt P53778); settings: for logFC MAPK12 (P53778): direction of change down; for logFC: MAPK12 (P53778)
T1 sequence (P53778 1-367): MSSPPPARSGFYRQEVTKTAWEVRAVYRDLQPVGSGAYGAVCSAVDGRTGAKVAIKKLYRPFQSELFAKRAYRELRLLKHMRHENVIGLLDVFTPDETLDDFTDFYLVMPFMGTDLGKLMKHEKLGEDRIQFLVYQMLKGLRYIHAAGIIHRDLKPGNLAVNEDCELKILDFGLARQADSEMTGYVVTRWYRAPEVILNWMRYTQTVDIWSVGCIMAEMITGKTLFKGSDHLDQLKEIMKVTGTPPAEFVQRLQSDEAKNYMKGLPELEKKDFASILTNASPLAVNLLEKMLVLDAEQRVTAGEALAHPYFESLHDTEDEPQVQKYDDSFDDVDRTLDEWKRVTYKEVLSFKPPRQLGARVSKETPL

[4] = molecular target: protein kinases (human kinome) (Homo sapiens, UniProt Q16644); settings: experiment wp168
protein kinases (human kinome) (Homo sapiens, UniProt Q16644), sequence (Q16644 whole entry): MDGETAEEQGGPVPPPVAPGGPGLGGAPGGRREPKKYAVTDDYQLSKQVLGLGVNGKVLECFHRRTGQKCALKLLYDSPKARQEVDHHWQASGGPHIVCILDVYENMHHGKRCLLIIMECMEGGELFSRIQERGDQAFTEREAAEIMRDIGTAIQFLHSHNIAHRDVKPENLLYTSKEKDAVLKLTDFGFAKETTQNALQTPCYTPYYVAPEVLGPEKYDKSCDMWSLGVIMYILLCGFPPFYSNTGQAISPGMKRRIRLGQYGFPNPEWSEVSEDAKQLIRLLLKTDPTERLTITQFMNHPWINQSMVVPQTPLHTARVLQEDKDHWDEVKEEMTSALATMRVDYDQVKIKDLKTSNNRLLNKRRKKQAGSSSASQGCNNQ

[5] = molecular target: protein kinases (human kinome) (Homo sapiens, UniProt O75460); settings: experiment wp076
protein kinases (human kinome) (Homo sapiens, UniProt O75460), sequence (O75460 19-977): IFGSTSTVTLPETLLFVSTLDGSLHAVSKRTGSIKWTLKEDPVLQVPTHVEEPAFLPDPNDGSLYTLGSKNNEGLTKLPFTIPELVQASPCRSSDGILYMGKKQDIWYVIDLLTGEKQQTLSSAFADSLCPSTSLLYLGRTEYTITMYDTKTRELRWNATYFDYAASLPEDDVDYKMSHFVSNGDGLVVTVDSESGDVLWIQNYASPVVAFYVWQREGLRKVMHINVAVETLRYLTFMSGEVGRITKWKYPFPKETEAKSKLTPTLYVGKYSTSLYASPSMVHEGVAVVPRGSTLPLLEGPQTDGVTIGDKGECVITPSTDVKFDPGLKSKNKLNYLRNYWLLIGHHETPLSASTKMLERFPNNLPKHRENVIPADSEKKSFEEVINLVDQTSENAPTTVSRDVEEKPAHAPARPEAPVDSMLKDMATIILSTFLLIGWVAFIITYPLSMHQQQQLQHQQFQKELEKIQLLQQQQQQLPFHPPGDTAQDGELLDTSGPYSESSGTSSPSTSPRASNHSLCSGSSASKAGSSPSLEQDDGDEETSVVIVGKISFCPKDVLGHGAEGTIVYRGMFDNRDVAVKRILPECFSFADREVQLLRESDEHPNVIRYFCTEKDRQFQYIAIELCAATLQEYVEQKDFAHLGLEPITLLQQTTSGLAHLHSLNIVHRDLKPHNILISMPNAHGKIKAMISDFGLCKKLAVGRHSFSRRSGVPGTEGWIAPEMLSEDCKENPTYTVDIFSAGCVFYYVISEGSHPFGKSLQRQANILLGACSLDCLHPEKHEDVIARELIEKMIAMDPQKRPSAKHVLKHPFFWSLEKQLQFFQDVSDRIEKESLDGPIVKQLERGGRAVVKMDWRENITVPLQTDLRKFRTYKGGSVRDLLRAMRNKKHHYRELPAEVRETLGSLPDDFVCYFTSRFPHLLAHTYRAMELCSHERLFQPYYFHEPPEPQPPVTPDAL

[6] = molecular target: protein kinases (human kinome) (Homo sapiens, UniProt Q9P2K8); settings: experiment wp080
[7] = molecular target: protein kinases (human kinome) (Homo sapiens, UniProt Q8IW41); settings: experiment wp080
protein kinases (human kinome) (Homo sapiens, UniProt Q8IW41), sequence (Q8IW41 whole entry): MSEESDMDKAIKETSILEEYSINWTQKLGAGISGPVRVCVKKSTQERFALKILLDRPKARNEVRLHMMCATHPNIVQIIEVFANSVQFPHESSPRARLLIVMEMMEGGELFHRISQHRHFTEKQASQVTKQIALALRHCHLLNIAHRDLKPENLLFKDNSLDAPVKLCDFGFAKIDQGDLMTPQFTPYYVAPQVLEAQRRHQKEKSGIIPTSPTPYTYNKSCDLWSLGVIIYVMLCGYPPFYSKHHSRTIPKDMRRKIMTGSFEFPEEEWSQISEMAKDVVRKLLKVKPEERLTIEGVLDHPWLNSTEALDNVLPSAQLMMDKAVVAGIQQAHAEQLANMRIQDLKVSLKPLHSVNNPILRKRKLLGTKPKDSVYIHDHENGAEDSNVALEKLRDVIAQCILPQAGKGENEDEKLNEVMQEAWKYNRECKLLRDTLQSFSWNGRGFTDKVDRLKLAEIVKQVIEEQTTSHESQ

[8] = molecular target: protein kinases (human kinome) (Homo sapiens, UniProt A2RU49); settings: protein HYKK (A2RU49); experiment wp117; down
[9] = molecular target: protein kinases (human kinome) (Homo sapiens, UniProt Q16877); settings: PFKFB4 (Q16877); experiment wp080
[10] = molecular target: T2, protein kinases (human kinome) (Homo sapiens, UniProt Q13163); settings: experiment wp071
T2 sequence (Q13163 1-448): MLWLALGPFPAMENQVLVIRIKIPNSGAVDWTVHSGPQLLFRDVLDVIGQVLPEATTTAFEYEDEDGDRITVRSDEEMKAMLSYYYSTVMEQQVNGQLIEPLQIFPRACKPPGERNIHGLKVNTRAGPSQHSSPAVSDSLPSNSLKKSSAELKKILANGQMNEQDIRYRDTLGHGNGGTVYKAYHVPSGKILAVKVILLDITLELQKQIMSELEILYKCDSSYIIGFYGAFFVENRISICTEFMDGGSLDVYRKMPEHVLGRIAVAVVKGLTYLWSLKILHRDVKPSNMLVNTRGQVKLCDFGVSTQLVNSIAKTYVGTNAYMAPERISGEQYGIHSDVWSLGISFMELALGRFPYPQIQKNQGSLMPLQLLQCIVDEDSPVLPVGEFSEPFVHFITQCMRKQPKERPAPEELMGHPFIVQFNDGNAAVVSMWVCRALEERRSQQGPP

[11] = molecular target: protein kinases (human kinome) (Homo sapiens, UniProt Q96GD4); settings: for logFC AURKB: AURKB Q96GD4
protein kinases (human kinome) (Homo sapiens, UniProt Q96GD4), sequence (Q96GD4 whole entry): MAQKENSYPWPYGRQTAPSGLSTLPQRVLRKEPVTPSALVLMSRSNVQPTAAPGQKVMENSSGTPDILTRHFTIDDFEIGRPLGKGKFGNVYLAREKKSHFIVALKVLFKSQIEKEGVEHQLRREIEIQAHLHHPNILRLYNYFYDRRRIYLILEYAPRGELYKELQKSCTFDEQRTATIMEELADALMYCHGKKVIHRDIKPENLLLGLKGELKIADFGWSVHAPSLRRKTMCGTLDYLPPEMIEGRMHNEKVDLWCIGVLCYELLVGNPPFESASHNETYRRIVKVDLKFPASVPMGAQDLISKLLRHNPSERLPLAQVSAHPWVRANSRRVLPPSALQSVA

[12] = molecular target: protein kinases (human kinome) (Homo sapiens, UniProt Q9UK32)
protein kinases (human kinome) (Homo sapiens, UniProt Q9UK32), sequence (Q9UK32 whole entry): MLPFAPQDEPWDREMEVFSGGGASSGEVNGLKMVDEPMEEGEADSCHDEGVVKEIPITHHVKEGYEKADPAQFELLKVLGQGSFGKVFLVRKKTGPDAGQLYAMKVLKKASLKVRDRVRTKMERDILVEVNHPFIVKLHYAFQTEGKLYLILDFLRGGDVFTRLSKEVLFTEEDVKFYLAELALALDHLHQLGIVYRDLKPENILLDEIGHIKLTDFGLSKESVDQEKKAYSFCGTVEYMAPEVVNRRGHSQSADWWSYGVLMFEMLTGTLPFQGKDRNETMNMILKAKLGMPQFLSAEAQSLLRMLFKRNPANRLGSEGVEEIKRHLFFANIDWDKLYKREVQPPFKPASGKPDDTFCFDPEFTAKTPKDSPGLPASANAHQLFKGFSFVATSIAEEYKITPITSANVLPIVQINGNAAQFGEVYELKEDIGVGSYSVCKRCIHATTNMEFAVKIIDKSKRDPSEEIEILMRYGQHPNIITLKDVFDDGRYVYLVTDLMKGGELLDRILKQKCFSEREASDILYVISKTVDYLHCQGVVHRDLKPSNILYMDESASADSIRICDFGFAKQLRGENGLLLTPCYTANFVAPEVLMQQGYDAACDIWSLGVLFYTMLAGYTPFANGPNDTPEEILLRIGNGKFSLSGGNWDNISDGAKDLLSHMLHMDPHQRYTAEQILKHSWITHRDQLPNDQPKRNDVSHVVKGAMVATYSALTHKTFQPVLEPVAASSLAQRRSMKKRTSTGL

[13] = molecular target: protein kinases (human kinome) (Homo sapiens, UniProt Q8TCT0); settings: protein CERK (Q8TCT0); experiment wp131; down
protein kinases (human kinome) (Homo sapiens, UniProt Q8TCT0), sequence (Q8TCT0 whole entry): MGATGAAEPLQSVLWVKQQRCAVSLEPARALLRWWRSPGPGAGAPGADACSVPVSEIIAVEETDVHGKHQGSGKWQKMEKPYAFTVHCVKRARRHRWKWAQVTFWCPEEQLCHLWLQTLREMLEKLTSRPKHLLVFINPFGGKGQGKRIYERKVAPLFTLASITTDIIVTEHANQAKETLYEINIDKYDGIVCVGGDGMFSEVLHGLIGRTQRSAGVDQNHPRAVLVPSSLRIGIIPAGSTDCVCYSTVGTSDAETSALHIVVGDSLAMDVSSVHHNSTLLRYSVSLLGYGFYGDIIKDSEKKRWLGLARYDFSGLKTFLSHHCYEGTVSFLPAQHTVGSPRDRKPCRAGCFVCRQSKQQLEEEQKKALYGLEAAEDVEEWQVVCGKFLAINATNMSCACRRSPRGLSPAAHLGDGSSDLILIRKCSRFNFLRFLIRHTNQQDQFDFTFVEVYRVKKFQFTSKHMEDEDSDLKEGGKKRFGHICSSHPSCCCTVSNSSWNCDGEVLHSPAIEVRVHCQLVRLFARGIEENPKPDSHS

[14] = molecular target: protein kinases (human kinome) (Homo sapiens, UniProt Q8TF76); settings: experiment wp137
protein kinases (human kinome) (Homo sapiens, UniProt Q8TF76), sequence (Q8TF76 whole entry): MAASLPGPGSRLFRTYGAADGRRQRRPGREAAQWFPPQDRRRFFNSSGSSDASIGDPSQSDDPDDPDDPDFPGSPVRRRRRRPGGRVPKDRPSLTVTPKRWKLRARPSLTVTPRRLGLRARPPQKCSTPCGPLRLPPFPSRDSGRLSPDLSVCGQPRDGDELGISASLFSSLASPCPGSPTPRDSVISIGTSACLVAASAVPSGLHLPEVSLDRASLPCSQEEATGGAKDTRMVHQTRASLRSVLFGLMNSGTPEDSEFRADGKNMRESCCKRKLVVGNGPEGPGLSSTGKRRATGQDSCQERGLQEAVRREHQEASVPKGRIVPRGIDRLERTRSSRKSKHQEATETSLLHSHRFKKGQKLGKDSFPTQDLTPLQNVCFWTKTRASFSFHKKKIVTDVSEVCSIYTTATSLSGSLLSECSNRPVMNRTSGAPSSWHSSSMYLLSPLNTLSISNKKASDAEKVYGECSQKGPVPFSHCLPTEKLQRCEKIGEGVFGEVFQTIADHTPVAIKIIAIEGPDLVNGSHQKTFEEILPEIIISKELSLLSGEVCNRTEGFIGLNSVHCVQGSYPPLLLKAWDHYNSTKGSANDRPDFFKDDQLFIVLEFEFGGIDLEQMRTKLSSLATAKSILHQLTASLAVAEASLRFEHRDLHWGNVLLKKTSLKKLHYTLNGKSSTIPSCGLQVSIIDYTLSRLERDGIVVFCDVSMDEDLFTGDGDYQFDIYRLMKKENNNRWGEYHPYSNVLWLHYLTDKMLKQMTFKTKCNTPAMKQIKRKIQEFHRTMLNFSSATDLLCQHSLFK

[15] = molecular target: protein kinases (human kinome) (Homo sapiens, UniProt Q8N4C8); settings: experiment wp107
[16] = molecular target: protein kinases (human kinome) (Homo sapiens, UniProt Q01415); settings: protein GALK2 (Q01415-1); experiment wp056; down

protein kinases (human kinome) (Homo sapiens, UniProt Q8N5S9), sequence (Q8N5S9 whole entry): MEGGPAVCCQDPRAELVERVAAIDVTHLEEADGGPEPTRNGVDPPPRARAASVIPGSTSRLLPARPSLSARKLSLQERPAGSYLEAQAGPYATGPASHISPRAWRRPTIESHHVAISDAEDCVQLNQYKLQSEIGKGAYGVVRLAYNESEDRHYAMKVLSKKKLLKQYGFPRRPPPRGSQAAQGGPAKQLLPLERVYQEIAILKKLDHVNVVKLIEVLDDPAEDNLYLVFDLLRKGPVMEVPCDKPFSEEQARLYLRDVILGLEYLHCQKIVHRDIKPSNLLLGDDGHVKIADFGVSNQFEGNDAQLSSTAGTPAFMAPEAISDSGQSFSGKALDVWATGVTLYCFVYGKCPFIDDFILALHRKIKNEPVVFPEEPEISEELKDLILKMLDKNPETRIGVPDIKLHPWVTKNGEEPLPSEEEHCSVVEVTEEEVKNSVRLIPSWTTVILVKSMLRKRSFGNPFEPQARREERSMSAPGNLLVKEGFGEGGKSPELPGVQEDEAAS

## CS(=O)(=O)Nc1cccc(-c2csc3cnc(Nc4ccc(N5CCN(CCCCCOc6cccc7c6C(=O)N(C6CCC(=O)NC6=O)C7=O)CC5)cc4)nc23)c1 (stereo not shown) [DB0614, N-(3-(2-((4-(4-(5-((2-(2,6-Dioxopiperidin-3-yl)-1,3-dioxoisoindolin-4-yl)oxy)pentyl)piperazin-1-yl)phenyl)amino)thieno[3,2-d]pyrimidin-7-yl)phenyl)methanesulfonamide]
[1]; CAMKK1 (Q8N5S9)
  logFC: −0.471
[1]; direction of change down
  logFC CAMKK1 (Q8N5S9): −0.471
[2]
  logFC PDXK: −0.3964

## Cc1ccc(NC(=O)c2cccc(C(F)(F)F)c2)cc1N1Cc2cnc(Nc3ccc(N4CCN(Cc5cn(CCCCCOc6cccc7c6C(=O)N(C6CCC(=O)NC6=O)C7=O)nn5)CC4)nc3)nc2N(C)C1=O (stereo not shown) [DB0646, N-(3-(7-((6-(4-((1-(5-((2-(2,6-Dioxopiperidin-3-yl)-1,3-dioxoisoindolin-4-yl)oxy)pentyl)-1H-1,2,3-triazol-4-yl)methyl)piperazin-1-v)pyridin-3-yl)amino)-1-methyl-2-oxo-1,4-dihydropyrimido[4,5-d]pyrimidin-3(2H)-yl)-4-methylphenyl)-3-(trifluoromethyl)benzamide]
[3]; Experiment wp105
  logFC MAPK12 (P53778): −0.5939
[3]; experiment wp105
  logFC: −0.5939
[3]; experiment wp172
  logFC: −1.457
  logFC MAPK12 (P53778): −1.457

## Cc1ccc(NC(=O)c2cccc(C(F)(F)F)c2)cc1N1Cc2cnc(Nc3ccc(N4CCN(CCCCC(=O)N[C@H](C(=O)N5C[C@H](O)C[C@H]5C(=O)N[C@@H](C)c5ccc(-c6scnc6C)cc5)C(C)(C)C)CC4)nc3)nc2N(C)C1=O [DB1113]
[4]; MAPKAPK3 (Q16644)
  logFC: −3.127
[4]; direction of change down
  logFC MAPKAPK3 (Q16644): −3.127

## O=C1CCC(N2C(=O)c3cccc(NCCCCCCCCN4CCC(NC(=O)c5[nH]ncc5NC(=O)c5c(Cl)cccc5Cl)CC4)c3C2=O)C(=O)N1 (stereo not shown) [MFH.5.126.1]
[5]
  logFC of ERN1 (O75460): −0.4882
[5]; protein ERN1 (O75460), down
  logFC ERN1: −0.4882

## Cc1ncsc1-c1ccc([C@H](C)NC(=O)[C@@H]2C[C@@H](O)CN2C(=O)[C@@H](NC(=O)CCCCCN2CCN(c3ccc(Nc4ncc5scc(-c6cccc(NS(C)(=O)=O)c6)c5n4)cc3)CC2)C(C)(C)C)cc1 [RSS0680, (2S,4R)-1-((S)-3,3-Dimethyl-2-(6-(4-(4-((7-(3-(methylsulfonamido)phenyl)thieno[3,2-d]pyrimidin-2-yl)amino)phenyl)piperazin-1-yl)hexanamido)butanoyl)-4-hydroxy-N—((S)-1-(4-(4-methylthiazol-5yl)phenyl)ethyl)pyrrolidine-2-carboxamide]
[6]; direction of change down
  logFC EIF2AK4 (Q9P2K8-1): −0.3311
[6]; protein EIF2AK4 (Q9P2K8-1), down
  logFC EIF2AK4: −0.3311
[7]; direction of change down
  logFC MAPKAPK5 (Q8IW41): −0.3355
[7]; protein MAPKAPK5 (Q8IW41), down
  logFC MAPKAPK5: −0.3355
[8]
  logFC HYKK: −0.3476
[9]
  logFC: −0.3389

## Nc1ncnc2c1c(-c1ccc(Oc3ccccc3)cc1)nn2[C@H]1CC[C@H](N2CCN(CCOCCNC(=O)CNc3cccc4c3C(=O)N(C3CCC(=O)NC3=O)C4=O)CC2)CC1 (stereo partly shown) [SB1.G.181]
[10]; MAP2K5 (Q13163-1)
  logFC: −1.138
[10]
  logFC of MAP2K5 (Q13163-1): −1.138

## CC(C)S(=O)(=O)c1ccccc1Nc1nc(Nc2ccc(N3CCN(CCOCCNC(=O)CNc4cccc5c4C(=O)N(C4CCC(=O)NC4=O)C5=O)CC3)cc2)ncc1Cl (stereo not shown) [SK.3.91]
[11]; experiment wp160, 4 hr
  logFC AURKB: −0.4984
  logFC of AURKB (Q96GD4): −0.4984
[11]; experiment wp172
  logFC AURKB: −1.11
[11]; Experiment wp172
  logFC of AURKB (Q96GD4): −1.11
[12]; Experiment wp105, direction of change down
  logFC RPS6KA6 (Q9UK32): −0.83
[12]; protein RPSGKA6 (Q9UK32), experiment wp105, down
  logFC RPSGKA6: −0.83

## CC(C)S(=O)(=O)c1ccccc1Nc1nc(Nc2ccc(N3CCN(CCOCCOCCNC(=O)CNc4cccc5c4C(=O)N(C4CCC(=O)NC4=O)C5=O)CC3)cc2)ncc1Cl (stereo not shown) [TL12.186]
[13]
  logFC CERK: −0.3343
[14]; direction of change down
  logFC HASPIN (Q8TF76-1): −0.368
[14]; protein HASPIN (QSTF76-1), down
  logFC HASPIN: −0.368

## Nc1ncc(-c2ccc(S(=O)(=O)N(CCCNC(=O)CCOCCOCCOCCOCCOCCNc3cccc4c3C(=O)N(C3CCC(=O)NC3=O)C4=O)C3CC3)cc2)cc1-c1ccc2c(c1)CCNC2=O (stereo not shown) [WH.10417.099]
[15]; direction of change down
  logFC MINK1 (Q8N4C8-1): −0.5661
[15]; protein MINK1 (Q8N408-1), down
  logFC MINK1: −0.5661

## C=CCn1c(=O)c2cnc(Nc3ccc(N4CCN(CCCNc5cccc6c5C(=O)N(C5CCC(=O)NC5=O)C6=O)CC4)cc3)nc2n1-c1cccc(C(C)(C)O)n1 (stereo not shown) [ZNL.02.096]
[16]
  logFC GALK2: −0.3724
